Laboratory results published in patent US20230346961A1, “GLP-1 AND GIP RECEPTOR CO-AGONISTS” (Novo Nordisk A/S, priority 2020, published 2023).
Starred links: 1 amine or outer side, 2 acyl side, 3 side chain; linkers in the order of their positions; H or OH if unused. Non-standard residues stand in square brackets, D forms with d. Residues, ends and D or L forms follow the SMILES beside them. Groups on a side chain read outwards from the residue. *: point of attachment. C20 diacid = O=C(O)CCCCCCCCCCCCCCCCCCC(=O)*; C18 diacid = O=C(O)CCCCCCCCCCCCCCCCC(=O)*; γGlu = O=C(O)[C@H](CCC(=O)[*:2])N[*:1]; εLys = N[C@@H](CCCCN[*:1])C(=O)[*:2]; Trx = NC[C@H]1CC[C@H](C(=O)O)CC1; AEEA = NCCOCCOCC(=O)O; Aib = CC(C)(N)C(=O)O

Columns and labels:
human GLP-1 receptor = human GLP-1 receptor (Homo sapiens, UniProt P43220); assay: cell-based; conditions: hGLP-1R
Chain of human GLP-1 receptor (P43220 24-463): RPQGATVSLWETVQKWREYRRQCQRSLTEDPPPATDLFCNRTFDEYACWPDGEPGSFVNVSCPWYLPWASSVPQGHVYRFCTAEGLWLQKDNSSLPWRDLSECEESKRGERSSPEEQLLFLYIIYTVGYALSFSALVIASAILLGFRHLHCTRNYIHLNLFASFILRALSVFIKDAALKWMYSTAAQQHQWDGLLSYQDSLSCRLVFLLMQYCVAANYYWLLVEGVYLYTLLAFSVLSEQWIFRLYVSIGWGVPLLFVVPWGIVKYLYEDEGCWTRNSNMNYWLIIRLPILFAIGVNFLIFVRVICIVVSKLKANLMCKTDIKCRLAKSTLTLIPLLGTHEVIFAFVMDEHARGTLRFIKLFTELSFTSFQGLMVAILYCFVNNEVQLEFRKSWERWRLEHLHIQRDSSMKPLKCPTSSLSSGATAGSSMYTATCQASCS

mouse GIP receptor = target: T1, mouse GIP receptor (Mus musculus, UniProt Q0P543); assay: cell-based
T1 sequence (Q0P543 19-460): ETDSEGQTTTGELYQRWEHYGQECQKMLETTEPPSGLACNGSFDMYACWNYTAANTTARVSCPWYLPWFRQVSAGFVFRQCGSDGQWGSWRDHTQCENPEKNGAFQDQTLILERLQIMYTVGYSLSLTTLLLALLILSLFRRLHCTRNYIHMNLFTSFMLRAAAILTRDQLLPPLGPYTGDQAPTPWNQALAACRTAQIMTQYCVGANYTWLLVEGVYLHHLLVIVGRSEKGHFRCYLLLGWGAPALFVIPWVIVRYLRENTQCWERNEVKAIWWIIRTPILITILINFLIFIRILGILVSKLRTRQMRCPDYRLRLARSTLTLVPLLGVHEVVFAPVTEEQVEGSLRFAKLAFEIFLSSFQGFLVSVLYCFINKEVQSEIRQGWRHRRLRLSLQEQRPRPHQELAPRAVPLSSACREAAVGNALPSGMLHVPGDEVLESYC
Experimental: (§1) The in vitro functional potency is the measure of target receptor activation in a whole cell assay.
(§2) In vitro functional potency was determined by measuring the response of the target receptor in a reporter gene assay in individual cell lines. […] When the respective receptor is activated, it results in the production of cAMP, which in turn results in expression of the luciferase protein. When assay incubation is completed, luciferase substrate (luciferin) is added resulting in the enzymatic conversion of luciferin to oxyluciferin and producing bioluminescence. The luminescence is measured as the readout for the assay.
(§3) The cells lines used in these assays were BHK cells with BHKTS13 as a parent cell line. The cell lines were derived from a clone containing the CRE luciferase element and were established by further transfection with the respective receptor to obtain the relevant cell line.
(§4) The cells were cultured at 37° C. with 5% CO2 in Cell Culture Medium. They were aliquoted and stored in liquid nitrogen. The cells were kept in continuous culture and were seeded out the day before each assay.
(§5) GLP-1R and GcgR Cell Culture Medium consisted of DMEM medium with 10% FBS, 500 μg/mL G418, and 300 μg/mL hygromycin. GIPR Cell Culture Medium consisted of DMEM medium with 10% FBS, 400 μg/mL G418, and 300 μg/mL hygromycin. Assay Buffer consisted of DMEM w/o phenol red, 10 mM Hepes, 1×Glutamax, 1% ovalbumin, and 0.1% Pluronic F-68 with the addition of HSA at twice the final assay concentration.
(§6) • 1) Cells were plated at 5000 cells/well and incubated overnight in the assay plate. • 2) Cells were washed once in DPBS. • 3) Stocks of the test compounds and reference compounds in concentrations ranging from 100-300 μM were diluted 1:150 in Assay Buffer. Compounds were then diluted 1:10 in column 1 of a 96 deep well dilution plate and then carried across the row creating a 3.5 fold, 12 point dilution curve. • 4) Assay Buffer (50 μl aliquot) with or without HSA was added to each well in the assay plate. • 5) A 50 μl aliquot of compound or blank was transferred from the dilution plate to the assay plate containing the Assay Buffer with or without HSA. • 6) The assay plate was incubated for 3 h in a 5% CO2 incubator at 37° C. 7) The cells were washed once with DPBS. • 8) A 100 μl aliquot of DPBS was added to each well of the assay plate. • 9) A 100 μl aliquot of steadylite plus reagent (light sensitive) was added to each well of the assay plate. • 10) Each assay plate was covered with aluminum foil to protect it from light and shaken at 250 RPM for 30 min at room temperature. • 11) Each assay plate was read in a microtiter plate reader.
(§7) The data from the microtiter plate reader was first regressed in an Excel in order to calculate the x-axis, log scale concentrations based on the individual test compound's stock concentration and the dilutions of the assay. […] The software performs a non-linear regression (log(agonist) vs response). A minimum of two replicates was measured for each sample. The reported values are averages of the replicates.

human glucagon receptor = human glucagon receptor (Homo sapiens, UniProt P47871); assay: cell-based
Chain of human glucagon receptor (P47871 26-477): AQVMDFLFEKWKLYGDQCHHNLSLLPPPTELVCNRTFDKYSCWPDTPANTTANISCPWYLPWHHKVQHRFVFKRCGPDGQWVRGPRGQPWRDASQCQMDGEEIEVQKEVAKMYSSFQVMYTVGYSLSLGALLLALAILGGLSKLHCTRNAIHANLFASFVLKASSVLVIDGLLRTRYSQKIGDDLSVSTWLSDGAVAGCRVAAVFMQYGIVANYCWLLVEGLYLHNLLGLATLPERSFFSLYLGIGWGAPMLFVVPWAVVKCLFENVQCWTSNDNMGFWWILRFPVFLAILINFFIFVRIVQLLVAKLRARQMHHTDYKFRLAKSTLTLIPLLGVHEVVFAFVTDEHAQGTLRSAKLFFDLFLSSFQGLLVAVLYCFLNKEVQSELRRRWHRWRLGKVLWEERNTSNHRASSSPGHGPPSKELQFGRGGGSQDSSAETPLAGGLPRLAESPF
Experimental: as §1, §2, §3, §4, §5, §6, §7

mouse GLP-1 receptor = target: T2, mouse GLP-1 receptor (Mus musculus, UniProt O35659)
T2 sequence (O35659 22-463): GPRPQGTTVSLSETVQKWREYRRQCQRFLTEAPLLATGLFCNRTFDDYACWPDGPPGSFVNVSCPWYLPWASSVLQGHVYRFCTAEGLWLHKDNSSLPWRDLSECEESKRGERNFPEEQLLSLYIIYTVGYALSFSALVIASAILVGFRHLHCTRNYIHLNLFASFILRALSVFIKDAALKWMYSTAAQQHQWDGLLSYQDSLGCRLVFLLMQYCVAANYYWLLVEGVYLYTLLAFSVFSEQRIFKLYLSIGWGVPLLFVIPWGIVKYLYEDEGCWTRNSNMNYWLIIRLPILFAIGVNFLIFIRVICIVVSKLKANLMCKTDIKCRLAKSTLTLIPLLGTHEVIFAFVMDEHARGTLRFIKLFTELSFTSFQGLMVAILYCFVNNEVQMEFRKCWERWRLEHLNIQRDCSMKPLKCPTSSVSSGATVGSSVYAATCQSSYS

SMILES | EC50 (human GLP-1 receptor; CRE Luc 0% HSA EC50, 0% HSA) [nM] | EC50 (human GLP-1 receptor; CRE Luc 1% HSA EC50, 1% HSA) [nM] | EC50 (mouse GIP receptor) [nM] | EC50 (human glucagon receptor) [nM] | EC50 (mouse GLP-1 receptor) [nM]
CC[C@H](C)[C@H](NC(=O)[C@H](CO)NC(=O)[C@H](Cc1ccc(O)cc1)NC(=O)[C@H](CC(=O)O)NC(=O)[C@H](CO)NC(=O)[C@@H](NC(=O)[C@H](Cc1ccccc1)NC(=O)[C@@H](NC(=O)CNC(=O)[C@H](CCC(=O)O)NC(=O)C(C)(C)NC(=O)[C@@H](N)Cc1ccc(O)cc1)[C@@H](C)O)[C@@H](C)O)C(=O)N[C@@H](Cc1ccc(O)cc1)C(=O)N[C@@H](CC(C)C)C(=O)N[C@@H](CCC(=O)O)C(=O)N[C@@H](CCCCN)C(=O)N[C@@H](CCC(N)=O)C(=O)N[C@@H](C)C(=O)N[C@@H](C)C(=O)NC(C)(C)C(=O)N[C@@H](CCCCNC(=O)COCCOCCNC(=O)COCCOCCNC(=O)CC[C@H](NC(=O)[C@H]1CC[C@H](CNC(=O)CCCCCCCCCCCCCCCCCCC(=O)O)CC1)C(=O)O)C(=O)N[C@@H](Cc1ccccc1)C(=O)N[C@H](C(=O)N[C@@H](CC(N)=O)C(=O)N[C@@H](Cc1c[nH]c2ccccc12)C(=O)N[C@@H](CC(C)C)C(=O)N[C@@H](CC(C)C)C(=O)N[C@@H](C)C(=O)NCC(=O)NCC(=O)N1CCC[C@H]1C(=O)N[C@@H](CO)C(=O)N[C@@H](CO)C(=O)NCC(=O)N[C@@H](C)C(=O)N1CCC[C@H]1C(=O)N1CCC[C@H]1C(=O)N1CCC[C@H]1C(=O)N[C@@H](CO)C(N)=O)C(C)C [Compound 17] (H-Y[Aib]EGTFTSDYSIYLEKQAA[Aib]K([AEEA-AEEA-γGlu-Trx-C20 diacid])FVNWLLAGGPSSGAPPPS-NH2; N-terminus assumed) | 0.0041 | 0.229 | 0.0219 | > 10 | 0.0023
CC[C@H](C)[C@H](NC(=O)[C@H](CO)NC(=O)[C@H](Cc1ccc(O)cc1)NC(=O)[C@H](CC(=O)O)NC(=O)[C@H](CO)NC(=O)[C@@H](NC(=O)[C@H](Cc1ccccc1)NC(=O)[C@@H](NC(=O)CNC(=O)[C@H](CCC(=O)O)NC(=O)C(C)(C)NC(=O)[C@@H](N)Cc1ccc(O)cc1)[C@@H](C)O)[C@@H](C)O)C(=O)N[C@@H](Cc1ccc(O)cc1)C(=O)N[C@@H](CC(C)C)C(=O)N[C@@H](CCC(=O)O)C(=O)N[C@@H](CCCCN)C(=O)N[C@@H](CCCCNC(=O)[C@@H](N)CCCCNC(=O)[C@@H](N)CCCCNC(=O)CC[C@H](NC(=O)[C@H]1CC[C@H](CNC(=O)CCCCCCCCCCCCCCCCCCC(=O)O)CC1)C(=O)O)C(=O)N[C@@H](C)C(=O)N[C@@H](C)C(=O)NC(C)(C)C(=O)N[C@@H](CCC(=O)O)C(=O)N[C@@H](Cc1ccccc1)C(=O)N[C@H](C(=O)N[C@@H](CCC(N)=O)C(=O)N[C@@H](Cc1c[nH]c2ccccc12)C(=O)N[C@@H](CC(C)C)C(=O)N[C@@H](CC(C)C)C(=O)N[C@@H](CCC(=O)O)C(=O)NCC(=O)NCC(=O)N1CCC[C@H]1C(=O)N[C@@H](CO)C(=O)N[C@@H](CO)C(=O)NCC(=O)N[C@@H](C)C(=O)N1CCC[C@H]1C(=O)N1CCC[C@H]1C(=O)N1CCC[C@H]1C(=O)N[C@@H](CO)C(N)=O)C(C)C [Compound 34] (H-Y[Aib]EGTFTSDYSIYLEKK([εLys-εLys-γGlu-Trx-C20 diacid])AA[Aib]EFVQWLLEGGPSSGAPPPS-NH2; N-terminus assumed) | 0.0032 | 0.379 | 0.0195 |  | 0.0018
CC[C@H](C)[C@H](NC(=O)[C@H](CO)NC(=O)[C@H](Cc1ccc(O)cc1)NC(=O)[C@H](CC(=O)O)NC(=O)[C@H](CO)NC(=O)[C@@H](NC(=O)[C@H](Cc1ccccc1)NC(=O)[C@@H](NC(=O)CNC(=O)[C@H](CCC(=O)O)NC(=O)C(C)(C)NC(=O)[C@@H](N)Cc1ccc(O)cc1)[C@@H](C)O)[C@@H](C)CC)C(=O)N[C@@H](Cc1ccc(O)cc1)C(=O)N[C@@H](CC(C)C)C(=O)N[C@@H](CC(=O)O)C(=O)N[C@@H](CCCCN)C(=O)N[C@@H](CCC(N)=O)C(=O)N[C@@H](C)C(=O)N[C@@H](C)C(=O)NC(C)(C)C(=O)N[C@@H](CCCCNC(=O)[C@@H](N)CCCCNC(=O)[C@@H](N)CCCCNC(=O)CC[C@H](NC(=O)CCCCCCCCCCCCCCCCC(=O)O)C(=O)O)C(=O)N[C@@H](Cc1ccccc1)C(=O)N[C@H](C(=O)N[C@@H](CC(N)=O)C(=O)N[C@@H](Cc1c[nH]c2ccccc12)C(=O)N[C@@H](CC(C)C)C(=O)N[C@@H](CC(C)C)C(=O)N[C@@H](C)C(=O)NCC(=O)NCC(=O)N1CCC[C@H]1C(=O)N[C@@H](CO)C(=O)N[C@@H](CO)C(=O)NCC(=O)N[C@@H](C)C(=O)N1CCC[C@H]1C(=O)N1CCC[C@H]1C(=O)N1CCC[C@H]1C(=O)N[C@@H](CO)C(N)=O)C(C)C [Compound 11] (H-Y[Aib]EGTFISDYSIYLDKQAA[Aib]K([εLys-εLys-γGlu-C18 diacid])FVNWLLAGGPSSGAPPPS-NH2; N-terminus assumed) | 0.394 |  | 0.0137 |  | 0.281
CC[C@H](C)[C@H](NC(=O)[C@H](CO)NC(=O)[C@H](Cc1ccc(O)cc1)NC(=O)[C@H](CC(=O)O)NC(=O)[C@H](CO)NC(=O)[C@@H](NC(=O)[C@H](Cc1ccccc1)NC(=O)[C@@H](NC(=O)CNC(=O)[C@H](CCC(=O)O)NC(=O)C(C)(C)NC(=O)[C@@H](N)Cc1ccc(O)cc1)[C@@H](C)O)[C@@H](C)O)C(=O)N[C@@H](Cc1ccc(O)cc1)C(=O)N[C@@H](CC(C)C)C(=O)N[C@@H](CCC(=O)O)C(=O)N[C@@H](CCCCNC(=O)[C@@H](N)CCCCNC(=O)[C@@H](N)CCCCNC(=O)CC[C@H](NC(=O)[C@H]1CC[C@H](CNC(=O)CCCCCCCCCCCCCCCCCCC(=O)O)CC1)C(=O)O)C(=O)N[C@@H](CCC(N)=O)C(=O)N[C@@H](C)C(=O)N[C@@H](C)C(=O)NC(C)(C)C(=O)N[C@@H](CCC(=O)O)C(=O)N[C@@H](Cc1ccccc1)C(=O)N[C@H](C(=O)N[C@@H](CCC(N)=O)C(=O)N[C@@H](Cc1c[nH]c2ccccc12)C(=O)N[C@@H](CC(C)C)C(=O)N[C@@H](CC(C)C)C(=O)N[C@@H](CCC(=O)O)C(=O)NCC(=O)NCC(=O)N1CCC[C@H]1C(=O)N[C@@H](CO)C(=O)N[C@@H](CO)C(=O)NCC(=O)N[C@@H](C)C(N)=O)C(C)C [Compound 33] (H-Y[Aib]EGTFTSDYSIYLEK([εLys-εLys-γGlu-Trx-C20 diacid])QAA[Aib]EFVQWLLEGGPSSGA-NH2; N-terminus assumed) | 0.0059 | 0.741 | 0.0311 |  | 0.004
CC[C@H](C)[C@H](NC(=O)[C@H](CO)NC(=O)[C@@H](NC(=O)[C@H](CC(=O)O)NC(=O)[C@H](CO)NC(=O)[C@@H](NC(=O)[C@H](Cc1ccccc1)NC(=O)[C@@H](NC(=O)CNC(=O)[C@H](CCC(=O)O)NC(=O)C(C)(C)NC(=O)[C@@H](N)Cc1c[nH]cn1)[C@@H](C)O)[C@@H](C)O)C(C)C)C(=O)N[C@@H](Cc1ccc(O)cc1)C(=O)N[C@@H](CC(C)C)C(=O)N[C@@H](CC(=O)O)C(=O)N[C@@H](CCCCN)C(=O)N[C@@H](CCC(N)=O)C(=O)N[C@@H](C)C(=O)N[C@@H](C)C(=O)NC(C)(C)C(=O)N[C@@H](CCCCNC(=O)[C@@H](N)CCCCNC(=O)[C@@H](N)CCCCNC(=O)CC[C@H](NC(=O)CCCCCCCCCCCCCCCCC(=O)O)C(=O)O)C(=O)N[C@@H](Cc1ccccc1)C(=O)N[C@H](C(=O)N[C@@H](CC(N)=O)C(=O)N[C@@H](Cc1c[nH]c2ccccc12)C(=O)N[C@@H](CC(C)C)C(=O)N[C@@H](CC(C)C)C(=O)N[C@@H](C)C(=O)NCC(=O)NCC(=O)N1CCC[C@H]1C(=O)N[C@@H](CO)C(=O)N[C@@H](CO)C(=O)NCC(=O)N[C@@H](C)C(=O)N1CCC[C@H]1C(=O)N1CCC[C@H]1C(=O)N1CCC[C@H]1C(=O)N[C@@H](CO)C(N)=O)C(C)C [Compound 12] (H-H[Aib]EGTFTSDVSIYLDKQAA[Aib]K([εLys-εLys-γGlu-C18 diacid])FVNWLLAGGPSSGAPPPS-NH2; N-terminus assumed) | 0.0029 |  | > 10 |  | 0.0022
